In brackets after ≈: the same amount, converted by molar mass. Read-outs that look alike come from different tables or passages of the source.
What was measured:
Format in all cases: cell-based
[1] = tested on: Streptococcus pneumoniae (Chester, ATCC49619); test: broth microdilution MIC assay, Streptococcus pneumoniae; conditions: MIC100 class score, 24 h
[2] = tested on: Staphylococcus aureus MSSA (Newman); test: broth microdilution MIC assay, Staphylococcus aureus MSSA (Newman); conditions: for Antibacterial activity Staphylococcus aureus (MSSA): MIC100 class score, broth microdilution; for MIC: Staphylococcus aureus
[3] = tested on: Staphylococcus aureus MRSA (COL); test: broth microdilution MIC assay, Staphylococcus aureus MRSA (COL); conditions: 24 h; for Antibacterial activity Staphylococcus aureus (MRSA): MIC100 class score, broth microdilution; for MIC: Staphylococcus aureus, MRSA, read-out: Antibacterial activity Staphylococcus aureus (MRSA)

Row | Structure (SMILES) | Antibacterial activity Streptococcus pneumoniae [1] | Antibacterial activity Staphylococcus aureus (MRSA) [3] | other results
1 | Cc1[nH]c(-c2ccc(-c3ccc(F)cc3)s2)nc1-c1ccccc1 [Compound 7] | 3 (MIC100 of 2-5 μg/ml) | – | –
2 | Cc1[nH]c(-c2csc(-c3ccc(F)cc3)n2)nc1-c1ccccc1 [Compound 11] | 3 (MIC100 of 2-5 μg/ml) | – | –
3 | Cc1[nH]c(-c2ccc(-c3cccc(Cl)c3)s2)nc1-c1ccccc1 [Compound 12] | 3 (MIC100 of 2-5 μg/ml) | – | –
4 | Cc1[nH]c(-c2ccc(-c3cccc(Br)c3)s2)nc1-c1ccccc1 [Compound 13] | 2 (MIC100 of 6-10 μg/ml) | – | –
5 | Cc1[nH]c(-c2csc(-c3cccc(Br)c3)n2)nc1-c1ccccc1 [Compound 14] | 3 (MIC100 of 2-5 μg/ml) | – | –
6 | Cc1[nH]c(-c2ccc(-c3ccccc3C(F)(F)F)o2)nc1-c1cccc(Cl)c1 [Compound 22] | 3 (MIC100 of 2-5 μg/ml) | – | Antibacterial activity Staphylococcus aureus (MSSA) ([2]; 24 h): 2 (MIC100 of 11-201 μg/ml); MIC ([2]; read-out: Antibacterial activity MSSA (Staphylococcus aureus MSSA)): 11 to 201 µg/mL (≈ 27.3 to 499 µM)
7 | Cc1ccc(-c2ccc(-c3nc(-c4ccccc4)c(C)[nH]3)s2)cc1 [Compound 54] | 2 (MIC100 of 6-10 μg/ml) | – | –
8 | Cc1ccc(-c2ncc(-c3nc(-c4ccccc4)c(C)[nH]3)s2)cc1 [Compound 55] | 3 (MIC100 of 2-5 μg/ml) | – | –
9 | Cc1ccc(-c2nc(-c3nc(-c4ccccc4)c(C)[nH]3)cs2)cc1 [Compound 56] | 3 (MIC100 of 2-5 μg/ml) | – | –
10 | Cc1ccc(-c2nc(-c3nc(-c4ccccc4)c(C)[nH]3)co2)cc1 [Compound 57] | 3 (MIC100 of 2-5 μg/ml) | – | –
11 | Cc1[nH]c(-c2ccc(-c3ccccc3)s2)nc1-c1ccccc1 [Compound 74] | 3 (MIC100 of 2-5 μg/ml) | – | –
12 | FC(F)(F)c1ccccc1-c1ccc(-c2ncc(-c3ccccc3)[nH]2)o1 [Compound 75] | – | – | MIC ([2]; 24 h, read-out: Antibacterial activity Staphylococcus aureus (MSSA)): 11 to 201 µg/mL (≈ 31 to 567 µM)
13 | Cc1[nH]c(-c2ccc(-c3ccccc3OC(F)(F)F)o2)nc1-c1ccc(O)cc1 [Compound 76] | 3 (MIC100 of 2-5 μg/ml) | – | Antibacterial activity Staphylococcus aureus (MSSA) ([2]; 24 h): 3 (MIC100 of 3-10 μg/ml)
14 | Cc1[nH]c(-c2ccc(-c3ccccc3F)o2)nc1-c1ccc(O)cc1 [Compound 77] | 3 (MIC100 of 2-5 μg/ml) | – | Antibacterial activity Staphylococcus aureus (MSSA) ([2]; 24 h): 3 (MIC100 of 3-10 μg/ml)
15 | COc1ccc(-c2ccc(-c3nc(C)c(-c4ccc(O)cc4)[nH]3)o2)cc1 [Compound 79] | 3 (MIC100 of 2-5 μg/ml) | – | –
16 | CCCc1[nH]c(-c2ccc(-c3ccccc3Cl)s2)nc1C [Compound 82] | – | 3 (MIC100 of 3-10 μg/ml) | –

Row | Structure (SMILES) | Antibacterial activity Streptococcus pneumoniae [1] | Antibacterial activity Staphylococcus aureus (MRSA) [3] | other results
17 | Brc1ccccc1-c1ccc(-c2ncc(-c3ccccc3)[nH]2)o1 [Compound 83] | 3 (MIC100 of 2-5 μg/ml) | – | –
18 | Cc1nc(-c2ccc(-c3ccccc3Br)o2)[nH]c1C [Compound 84] | – | – | MIC [3]: 11 to 201 µg/mL (≈ 34.7 to 634 µM)
19 | Cc1nc(-c2ccc(-c3ccccc3OC(F)(F)F)o2)[nH]c1C [Compound 85] | – | – | MIC [3]: 1 to 3 µg/mL (≈ 3.1 to 9.31 µM)
20 | CCCCc1nc(-c2ccc(-c3ccccc3C(F)(F)F)o2)[nH]c1C [Compound 90] | 3 (MIC100 of 2-5 μg/ml) | – | –
21 | CCCc1[nH]c(-c2ccc(-c3ccccc3)o2)nc1C [Compound 94] | 3 (MIC100 of 2-5 μg/ml) | 3 (MIC100 of 3-10 μg/ml) | –
22 | CCCc1[nH]c(-c2ccc(-c3ccccc3[N+](=O)[O-])o2)nc1C [Compound 97] | 2 (MIC100 of 6-10 μg/ml) | 2 (MIC100 of 11-201 μg/ml) | –
23 | CCCc1nc(-c2ccc(-c3ccccc3N(C)C)o2)[nH]c1C [Compound 98] | – | 3 (MIC100 of 3-10 μg/ml) | –
24 | CCCc1nc(-c2ccc(-c3ccccc3C)o2)[nH]c1C [Compound 100] | 3 (MIC100 of 2-5 μg/ml) | 2 (MIC100 of 11-201 μg/ml) | –
25 | CCCc1[nH]c(-c2ccc(-c3ccccc3C(F)(F)F)o2)nc1C [Compound 101] | 3 (MIC100 of 2-5 μg/ml) | – | –
26 | CCCc1nc(-c2ccc(-c3ccccc3OC)o2)[nH]c1C [Compound 102] | 3 (MIC100 of 2-5 μg/ml) | – | –
27 | CCCc1nc(-c2ccc(-c3c(C)cccc3C)o2)[nH]c1C [Compound 103] | 3 (MIC100 of 2-5 μg/ml) | 3 (MIC100 of 3-10 μg/ml) | –
28 | CCCc1nc(-c2ccc(-c3ccc(C(F)(F)F)cc3)o2)[nH]c1C [Compound 104] | 3 (MIC100 of 2-5 μg/ml) | 3 (MIC100 of 3-10 μg/ml) | –
29 | CCCc1[nH]c(-c2ccc(-c3cccc4[nH]ccc34)o2)nc1C [Compound 108] | 2 (MIC100 of 6-10 μg/ml) | 2 (MIC100 of 11-201 μg/ml) | –
30 | CCCc1[nH]c(-c2ccc(-c3ccc(Cl)cc3Cl)o2)nc1C [Compound 109] | – | 2 (MIC100 of 11-201 μg/ml) | –
31 | CCCc1[nH]c(-c2ccc(-c3cc(F)ccc3C(F)(F)F)o2)nc1C [Compound 111] | 3 (MIC100 of 2-5 μg/ml) | – | –
32 | CCCc1nc(-c2coc(-c3ccccc3C(F)(F)F)c2)[nH]c1C [Compound 112] | – | 3 (MIC100 of 3-10 μg/ml) | –
